For orientation: EC50 means the concentration needed to bring the measured effect to its halfway point.

Each structure is given as a SMILES string.

From patent publication US12692262B2, “Substituted ureas as orexin receptor agonists” (Merck Sharp & Dohme LLC, priority 2020, dated 2026) come the findings set out here.

This assay has as its target T1, human OX2R (Homo sapiens, UniProt O43614).
T1 construct: expressed in transfected cells; host or cells: CHO (Chinese hamster ovary) cells grown under G418 selection
T1 sequence (O43614 1-444): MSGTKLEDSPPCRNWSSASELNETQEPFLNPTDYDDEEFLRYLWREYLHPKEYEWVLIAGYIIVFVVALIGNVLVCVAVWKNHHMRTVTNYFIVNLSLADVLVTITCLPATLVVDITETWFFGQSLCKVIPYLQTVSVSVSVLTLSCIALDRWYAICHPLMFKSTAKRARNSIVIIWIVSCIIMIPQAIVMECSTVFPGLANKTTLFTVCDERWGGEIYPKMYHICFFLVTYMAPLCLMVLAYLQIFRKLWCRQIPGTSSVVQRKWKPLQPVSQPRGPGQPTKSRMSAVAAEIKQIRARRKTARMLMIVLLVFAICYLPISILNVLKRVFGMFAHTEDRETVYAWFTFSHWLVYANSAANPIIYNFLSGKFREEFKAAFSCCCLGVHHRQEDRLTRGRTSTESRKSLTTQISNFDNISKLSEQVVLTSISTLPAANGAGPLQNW
Kind of assay: IPOne (IP-1 accumulation) assay in CHO cells expressing human OX2R. In kind it is cell-based. The conditions noted are these: for EC50: CHO cells expressing human OX2R, IP-One assay, 2 h incubation, four parameter logistic fit, read-out: OX2R Potency, EC50; for % of maximum agonist effect (relative to Orexin A): percent effect vs mean max effect of a reference compound at 1 uM (100% activity vs Orexin A), human OX2R. Put shortly:
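CHO cells stably expressing human OX2R, grown in Iscove's modified DMEM with 10% FBS; agonist-driven IP-1 accumulation via the Gαq pathway measured by HTRF (D2/AB-cryptate detection after lysis). EC50 taken as the inflection point of a four-parameter logistic fit.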

With `CCN(C(=O)N[C@@H](CCC(F)(F)F)C(F)(F)F)[C@@H](c1cc(-c2cn3cc(C)nc3c(OC)n2)c(OC)cn1)C(F)(F)F` [Example 10-9, 1-ethyl-3-((S)-1,1,1,5,5,5-hexafluoropentan-2-yl)-1-((S)-2,2,2-trifluoro-1-(5-methoxy-4-(8-methoxy-2-methylimidazo[1,2-a]pyrazin-6-yl)pyridin-2-yl)ethyl)urea], the EC50 worked out at 2.7 nM and the “% of maximum agonist effect (relative to Orexin A)” value stood at 102.5%.

For `CCN(C(=O)N[C@@H](CCC(F)(F)F)C(F)(F)F)C(c1cc(-c2cc(OC)c3nccn3n2)c(OC)cn1)C(F)(F)F` (stereo partly drawn) [Example 10-10, 1-ethyl-3-((S)-1,1,1,5,5,5-hexafluoropentan-2-yl)-1-(2,2,2-trifluoro-1-(5-methoxy-4-(8-methoxyimidazo[1,2-b]pyridazin-6-yl)pyridin-2-yl)ethyl)urea], the EC50 was 4.7 nM and the “% of maximum agonist effect (relative to Orexin A)” value turned out to be 100.8%.

Consider `CCN(C(=O)N[C@@H](CCC(F)(F)F)C(F)(F)F)C(c1cc(-c2cc(OC)c3ncccc3c2)c(OC)cn1)C(F)(F)F` (stereo partly drawn) [Example 10-11, 1-ethyl-3-((S)-1,1,1,5,5,5-hexafluoropentan-2-yl)-1-(2,2,2-trifluoro-1-(5-methoxy-4-(8-methoxyquinolin-6-yl)pyridin-2-yl)ethyl)urea], for which the EC50 was found to be 7.3 nM and the “% of maximum agonist effect (relative to Orexin A)” value amounted to 101.3%.

In the case of `CCN(C(=O)N[C@@H](CCC(F)(F)F)C(F)(F)F)C(c1cc(-c2cn3c(C#N)cnc3c(OC)n2)c(OC)cn1)C(F)(F)F` (stereo partly drawn) [Example 10-12, 1-(1-(4-(3-cyano-8-methoxyimidazo[1,2-a]pyrazin-6-yl)-5-methoxypyridin-2-yl)-2,2,2-trifluoroethyl)-1-ethyl-3-((S)-1,1,1,5,5,5-hexafluoropentan-2-yl)urea], the EC50 was 70.1 nM and the “% of maximum agonist effect (relative to Orexin A)” value came out at 100.5%.

`CCN(C(=O)N[C@@H](CCC(F)(F)F)C(F)(F)F)C(c1cc(-c2cc(OC)c3nccnc3c2)c(OC)cn1)C(F)(F)F` (stereo partly drawn) [Example 10-13, 1-ethyl-3-((S)-1,1,1,5,5,5-hexafluoropentan-2-yl)-1-(2,2,2-trifluoro-1-(5-methoxy-4-(8-methoxyquinoxalin-6-yl)pyridin-2-yl)ethyl)urea]: the EC50 worked out at 132 nM and the “% of maximum agonist effect (relative to Orexin A)” value is reported as 101.7%.

For `CCN(C(=O)N[C@@H](CCC(F)(F)F)C(F)(F)F)[C@@H](c1cc(-c2cc(OC)c3[nH]cnc3c2)c(OC)cn1)C(F)(F)F` [Example 10-15, 1-ethyl-3-((S)-1,1,1,5,5,5-hexafluoropentan-2-yl)-1-((S)-2,2,2-trifluoro-1-(5-methoxy-4-(7-methoxy-1H-benzo[d]imidazol-5-yl)pyridin-2-yl)ethyl)urea], the EC50 was found to be 6.4 nM and the “% of maximum agonist effect (relative to Orexin A)” value is recorded as 99.8%.

Consider `CCN(C(=O)N[C@@H](CCC(F)(F)F)C(F)(F)F)C(c1cc(-c2cn3ccnc3c(OC)n2)cc(OC)n1)C(F)(F)F` (stereo partly drawn) [Example 10-16, 1-ethyl-3-((S)-1,1,1,5,5,5-hexafluoropentan-2-yl)-1-(2,2,2-trifluoro-1-(6-methoxy-4-(8-methoxyimidazo[1,2-a]pyrazin-6-yl)pyridin-2-yl)ethyl)urea], for which the EC50 came to 35.2 nM and the “% of maximum agonist effect (relative to Orexin A)” value came out at 97.9%.

`CCN(C(=O)N[C@@H](CCC(F)(F)F)C(F)(F)F)C(c1cc(-c2cn3ccnc3c(OC)n2)cnc1OC)C(F)(F)F` (stereo partly drawn) [Example 10-17, 1-ethyl-3-((S)-1,1,1,5,5,5-hexafluoropentan-2-yl)-1-(2,2,2-trifluoro-1-(2-methoxy-5-(8-methoxyimidazo[1,2-a]pyrazin-6-yl)pyridin-3-yl)ethyl)urea]: the EC50 turned out to be 88.8 nM and the “% of maximum agonist effect (relative to Orexin A)” value is 100.5%.

Consider `CCN(C(=O)N[C@@H](CCC(F)(F)F)C(F)(F)F)[C@H](C)c1cnc(C)c(-c2cn3ccnc3c(OC)n2)c1` [Example 10-18, 1-ethyl-3-((S)-1,1,1,5,5,5-hexafluoropentan-2-yl)-1-((R)-1-(5-(8-methoxyimidazo[1,2-a]pyrazin-6-yl)-6-methylpyridin-3-yl)ethyl)urea], for which the EC50 was determined as 11.9 nM and the “% of maximum agonist effect (relative to Orexin A)” value stood at 99.8%.

As for `CCN(C(=O)N[C@@H](CCC(C)(F)F)C(F)(F)F)[C@H](C)c1cnc(OC)c(-c2cn3ccnc3c(OC)n2)c1` [Example 10-19, 1-ethyl-1-((R)-1-(6-methoxy-5-(8-methoxyimidazo[1,2-a]pyrazin-6-yl)pyridin-3-yl)ethyl)-3-((S)-1,1,1,5,5-pentafluorohexan-2-yl)urea], the EC50 turned out to be 0.8 nM and the “% of maximum agonist effect (relative to Orexin A)” value is on record as 100.6%.

`CCN(C(=O)N[C@@H](CCC(F)(F)F)C(F)(F)F)C(c1ccc(OC)c(-c2cn3ccnc3c(OC)n2)n1)C(F)(F)F` (stereo partly drawn) [Example 10-20, 1-ethyl-3-((S)-1,1,1,5,5,5-hexafluoropentan-2-yl)-1-(2,2,2-trifluoro-1-(5-methoxy-6-(8-methoxyimidazo[1,2-a]pyrazin-6-yl)pyridin-2-yl)ethyl)urea]: the EC50 turned out to be 0.7 nM and the “% of maximum agonist effect (relative to Orexin A)” value is 101.0%.

As for `CCN(C(=O)N[C@@H](CCC(F)(F)F)C(F)(F)F)[C@@H](c1cc(-c2cn3ccnc3c(OC)n2)c(C)cn1)C(F)(F)F` [Example 10-21, 1-ethyl-3-((S)-1,1,1,5,5,5-hexafluoropentan-2-yl)-1-((S)-2,2,2-trifluoro-1-(4-(8-methoxyimidazo[1,2-a]pyrazin-6-yl)-5-methylpyridin-2-yl)ethyl)urea], the EC50 came to 1.6 nM and the “% of maximum agonist effect (relative to Orexin A)” value is on record as 100.9%.

`CCN(C(=O)N[C@@H](CCC(F)(F)F)C(F)(F)F)C(c1cncc(-c2cn3ccnc3c(OC)n2)c1)C(F)(F)F` (stereo partly drawn) [Example 10-22, 1-ethyl-3-((S)-1,1,1,5,5,5-hexafluoropentan-2-yl)-1-(2,2,2-trifluoro-1-(5-(8-methoxyimidazo[1,2-a]pyrazin-6-yl)pyridin-3-yl)ethyl)urea]: the EC50 came to 76.9 nM and the “% of maximum agonist effect (relative to Orexin A)” value is 99.4%.

As to `CC[C@H](CCC(F)(F)F)NC(=O)N(CC)[C@H](C)c1cc2c(c(-c3ccc4nccn4c3)c1)OCC2` [Example 11-1, 1-ethyl-1-((R)-1-(7-(imidazo[1,2-a]pyridin-6-yl)-2,3-dihydrobenzofuran-5-yl)ethyl)-3-((R)-6,6,6-trifluorohexan-3-yl)urea], the EC50 is 5.6 nM and the “% of maximum agonist effect (relative to Orexin A)” value came out at 97.4%.

Turning to `CC[C@H](CCC(F)(F)F)NC(=O)N(CC)[C@H](C)c1cc(-c2ccc3nccn3c2)c(OC)cc1F` [Example 11-2, 1-ethyl-1-((R)-1-(2-fluoro-5-(imidazo[1,2-a]pyridin-6-yl)-4-methoxyphenyl)ethyl)-3-((R)-6,6,6-trifluorohexan-3-yl)urea], the EC50 was found to be 80.5 nM and the “% of maximum agonist effect (relative to Orexin A)” value was 98.5%.

Consider `CC[C@H](CCC(F)(F)F)NC(=O)N(CC)[C@H](C)c1ccc(Br)c(-c2ccc3nccn3c2)c1` [Example 11-3, 1-((R)-1-(4-bromo-3-(imidazo[1,2-a]pyridin-6-yl)phenyl)ethyl)-1-ethyl-3-((R)-6,6,6-trifluorohexan-3-yl)urea], for which the EC50 worked out at 129 nM and the “% of maximum agonist effect (relative to Orexin A)” value was 91.8%.

Take `CCN(C(=O)N[C@@H](CCC(F)(F)F)C(F)(F)F)[C@H](C)c1cnc(OC)c(-c2cn3ccnc3c(OC)n2)c1` [Example 11-4, 1-ethyl-3-((S)-1,1,1,5,5,5-hexafluoropentan-2-yl)-1-((R)-1-(6-methoxy-5-(8-methoxyimidazo[1,2-a]pyrazin-6-yl)pyridin-3-yl)ethyl)urea]: the EC50 turned out to be 0.7 nM and the “% of maximum agonist effect (relative to Orexin A)” value worked out at 101.6%.

Consider `CCN(C(=O)N[C@@H](CCC(F)(F)F)C(F)(F)F)[C@H](C)c1cc(-c2cc(OC)n3nccc3c2)c(OC)cn1` [Example 11-5, 1-ethyl-3-((S)-1,1,1,5,5,5-hexafluoropentan-2-yl)-1-((R)-1-(5-methoxy-4-(7-methoxypyrazolo[1,5-a]pyridin-5-yl)pyridin-2-yl)ethyl)urea], for which the EC50 was 0.6 nM and the “% of maximum agonist effect (relative to Orexin A)” value amounted to 100.1%.

Turning to `CCN(C(=O)N[C@@H](CCC(F)(F)F)C(F)(F)F)[C@H](C)c1cc(-c2cn3ccnc3c(OC)n2)c(OC)cn1` [Example 12-1, 1-ethyl-3-((S)-1,1,1,5,5,5-hexafluoropentan-2-yl)-1-((R)-1-(5-methoxy-4-(8-methoxyimidazo[1,2-a]pyrazin-6-yl)pyridin-2-yl)ethyl)urea], the EC50 turned out to be 0.6 nM and the “% of maximum agonist effect (relative to Orexin A)” value was 100.1%.

In the case of `CCN(C(=O)N[C@@H](CCC(F)(F)F)C1CC1)[C@H](C)c1cnc(OC)c(-c2cn3ccnc3c(OC)n2)c1` [Example 12-2, 3-((S)-1-cyclopropyl-4,4,4-trifluorobutyl)-1-ethyl-1-((R)-1-(6-methoxy-5-(8-methoxyimidazo[1,2-a]pyrazin-6-yl)pyridin-3-yl)ethyl)urea], the EC50 is 1.2 nM and the “% of maximum agonist effect (relative to Orexin A)” value amounted to 100.6%.
